Experiment [1] deals with Staphylococcus aureus MW2 delta-mecA (mecA-). Put plainly: IC50 (growth, competition assay). To be noted: cefoxitin: subinhibitory. The method, boiled down:
(§1)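 Pre-induced, 1:1-mixed fluorescent S. aureus MW2 mecA+ and ΔmecA strains were grown 20 h at 37 °C, 90% humidity, unshaken, in LB with a daily-set subinhibitory cefoxitin dose, in 1536-well plates. Compounds were given on five- or nine-point 2-fold gradients, in two dye-swapped replicates. DsRed (540/590) and GFP (485/520) were scaled per plate between single-strain control medians, with No Treatment then set to 0.5. Per-strain IC50 was the dose halving the No Treatment signal, or the maximal signal.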

In experiment [2] the test system is Staphylococcus aureus MW2 (mecA+). Put plainly: IC50 (growth, competition assay). To be noted: cefoxitin: subinhibitory. An outline of the steps: as §1

pIC50: −log10 of the molar value. Where “and” joins values, the source holds several entries; their conditions need not be identical. Identical values can stand only once. Counter-ions that a name gives are not always drawn.

In general, pIC50 refers to −log10 of the IC50, conventionally taken in molar units. Regarding `CN1C[C@@H]2C[C@H]1CN2c1cc2c(cc1F)c(=O)c(C(=O)O)cn2C1CC1` [Danofloxacin Mesylate], the pIC50 in experiment [1] (fluorescent label: DsRed), in experiment [1] (fluorescent label: GFP), in experiment [2] (fluorescent label: DsRed) and in experiment [2] (fluorescent label: GFP) was over 5.01 each time.

For the molecule `CO[C@@]1(NC(=O)C2SC(=C(C(N)=O)C(=O)O)S2)C(=O)N2C(C(=O)O)=C(CSc3nnnn3C)CS[C@@H]21` (some centres not stated) [CEFOTAN], the pIC50 in experiment [1] (fluorescent label: DsRed) was over 5.01; in experiment [1] (fluorescent label: GFP), over 5.01; in experiment [2] (fluorescent label: DsRed), 4.83; in experiment [2] (fluorescent label: GFP) it was 4.83.

As to `O=C(O)Cc1cc(I)c(Oc2ccc(O)c(I)c2)c(I)c1` [TRIAC], the pIC50 in experiment [1] (fluorescent label: DsRed) is 4.95; in experiment [1] (fluorescent label: GFP) it was over 5.01; in experiment [2] (fluorescent label: DsRed) it was 4.90; in experiment [2] (fluorescent label: GFP), 4.64.

On to `CCn1cc(C(=O)O)c(=O)c2ccc(C)nc21` [Nalidixic acid (NegGram)], for which the negative-log IC50 (pIC50) is 4.51 and 4.74 in experiment [1] (fluorescent label: DsRed); 4.77 and 4.78 in experiment [1] (fluorescent label: GFP); 4.00 and 4.24 in experiment [2] (fluorescent label: DsRed); 3.96 and 4.24 in experiment [2] (fluorescent label: GFP).

With `CN(C)C[C@H](O)Cn1c2ccc(Br)cc2c2cc(Br)ccc21` (racemic) [Wiskostatin], the negative-log IC50 (pIC50) is over 5.01 in experiment [1] (fluorescent label: DsRed), over 5.01 in experiment [1] (fluorescent label: GFP), 4.76 in experiment [2] (fluorescent label: DsRed) and 4.69 in experiment [2] (fluorescent label: GFP).

Turning to `CN(C)c1ccc(C(=C2C=CC(=[N+](C)C)C=C2)c2ccc(N(C)C)cc2)cc1` [GVS], the pIC50 in experiment [1] (fluorescent label: DsRed), in experiment [1] (fluorescent label: GFP), in experiment [2] (fluorescent label: DsRed) and in experiment [2] (fluorescent label: GFP) was over 5.01 each time.

Turning to `O=C(O[C@H]1CN2CCC1CC2)N1CCc2ccccc2[C@@H]1c1ccccc1` [VESICARE], the pIC50 in experiment [1] (fluorescent label: DsRed) was 4.50; in experiment [1] (fluorescent label: GFP), 4.70; in experiment [2] (fluorescent label: DsRed), 4.32; in experiment [2] (fluorescent label: GFP), 4.17.

As for `CN[C@H](CC(C)C)C(=O)N[C@H]1C(=O)N[C@@H](CC(N)=O)C(=O)N[C@H]2C(=O)N[C@H]3C(=O)N[C@H](C(=O)N[C@H](C(=O)O)c4cc(O)cc(O)c4-c4cc3ccc4O)[C@H](O)c3ccc(c(Cl)c3)Oc3cc2cc(c3O[C@@H]2O[C@H](CO)[C@@H](O)[C@H](O)[C@H]2O[C@H]2C[C@](C)(N)[C@H](O)[C@H](C)O2)Oc2ccc(cc2Cl)[C@H]1O` [Vancomycin HCl (Vancocin)], the pIC50 in experiment [1] (fluorescent label: DsRed), in experiment [1] (fluorescent label: GFP), in experiment [2] (fluorescent label: DsRed) and in experiment [2] (fluorescent label: GFP) was over 5.01 in each case.

In the case of `CN(N=O)C(=O)N[C@@H]1[C@@H](O)[C@H](O)[C@@H](CO)O[C@@H]1O` [ZANOSAR], the negative logarithm of the IC50 (pIC50) in experiment [1] (fluorescent label: DsRed), in experiment [1] (fluorescent label: GFP), in experiment [2] (fluorescent label: DsRed) and in experiment [2] (fluorescent label: GFP) was over 5.01 throughout.

In the case of `OCc1ccc(-c2ccc(-c3ccc(CO)s3)o2)s1`, the pIC50 was over 5.01 in experiment [1] (fluorescent label: DsRed), over 5.01 in experiment [1] (fluorescent label: GFP), 4.65 in experiment [2] (fluorescent label: DsRed) and 4.48 in experiment [2] (fluorescent label: GFP).

Turning to `C=CC1=C(C(=O)O)N2C(=O)[C@@H](NC(=O)/C(=N\O)c3csc(N)n3)[C@H]2SC1` [OMNICEF], the negative logarithm of the IC50 (pIC50) in experiment [1] (fluorescent label: DsRed), in experiment [1] (fluorescent label: GFP), in experiment [2] (fluorescent label: DsRed) and in experiment [2] (fluorescent label: GFP) was over 5.01 in each case.

`Cc1sc2c(c1C)C(c1ccc(Cl)cc1)=N[C@@H](CC(=O)OC(C)(C)C)c1nnc(C)n1-2` [(+)-JQ1]: the negative-log IC50 (pIC50) in experiment [1] (fluorescent label: DsRed) is 4.33; in experiment [1] (fluorescent label: GFP) it was 4.45; in experiment [2] (fluorescent label: DsRed), 4.01; in experiment [2] (fluorescent label: GFP), 3.95.

For `CCC[C@H](NC(=O)/C(C#N)=C/c1cccc(Br)n1)c1ccccc1` [WP1130], the pIC50 in experiment [1] (fluorescent label: DsRed) is 5.64; in experiment [1] (fluorescent label: GFP), 6.04; in experiment [2] (fluorescent label: DsRed), 4.86; in experiment [2] (fluorescent label: GFP), 4.56.

Turning to `Cc1ccc(S(=O)(=O)C=CC#N)cc1` [BAY 11-7082 (BAY 11-7821)], the pIC50 in experiment [1] (fluorescent label: DsRed) was over 5.01; in experiment [1] (fluorescent label: GFP), over 5.01; in experiment [2] (fluorescent label: DsRed), over 5.01; in experiment [2] (fluorescent label: GFP) it was 5.01.

Regarding `Nc1nc(/C(=C/CC(=O)O)C(=O)N[C@@H]2C(=O)N3C(C(=O)O)=CCS[C@H]23)cs1` [CEDAX], the negative-log IC50 (pIC50) in experiment [1] (fluorescent label: DsRed) was over 5.01; in experiment [1] (fluorescent label: GFP), over 5.01; in experiment [2] (fluorescent label: DsRed), 4.74; in experiment [2] (fluorescent label: GFP), 4.72.

`NCc1ccccc1CC(=O)N[C@@H]1C(=O)N2C(C(=O)O)=C(CSc3nnnn3CC(=O)O)CS[C@H]12` [PRECEF]: the pIC50 in experiment [1] (fluorescent label: DsRed) was over 5.01; in experiment [1] (fluorescent label: GFP), over 5.01; in experiment [2] (fluorescent label: DsRed), 4.27; in experiment [2] (fluorescent label: GFP), 4.35.

As to `OCCN1CCN(CCCN2c3ccccc3Sc3ccc(Cl)cc32)CC1` [Perphenazine], the pIC50 in experiment [1] (fluorescent label: DsRed) was 4.57; in experiment [1] (fluorescent label: GFP), 4.68; in experiment [2] (fluorescent label: DsRed), 4.15; in experiment [2] (fluorescent label: GFP) it was 4.18.

For `COc1ccc([C@@H](C)C(=O)c2ccc(O)cc2O)cc1` [ANGOLENSIN (R)], the pIC50 was over 5.01 in experiment [1] (fluorescent label: DsRed), over 5.01 in experiment [1] (fluorescent label: GFP), 4.65 in experiment [2] (fluorescent label: DsRed) and 4.56 in experiment [2] (fluorescent label: GFP).

For the molecule `O=C(OC[C@H]1O[C@@H](OC(=O)c2cc(O)c(O)c(OC(=O)c3cc(O)c(O)c(O)c3)c2)[C@H](OC(=O)c2cc(O)c(O)c(OC(=O)c3cc(O)c(O)c(O)c3)c2)[C@@H](OC(=O)c2cc(O)c(O)c(OC(=O)c3cc(O)c(O)c(O)c3)c2)[C@@H]1OC(=O)c1cc(O)c(O)c(OC(=O)c2cc(O)c(O)c(O)c2)c1)c1cc(O)c(O)c(OC(=O)c2cc(O)c(O)c(O)c2)c1` [TANNIC ACID], the pIC50 is 4.36 in experiment [1] (fluorescent label: DsRed), 4.26 in experiment [1] (fluorescent label: GFP), 4.24 in experiment [2] (fluorescent label: DsRed) and 4.24 in experiment [2] (fluorescent label: GFP).

For the molecule `Cc1ncc(-c2ccnc(Nc3ccc(S(C)(=O)=O)cc3)n2)n1C(C)C` [AZD5438], the negative logarithm of the IC50 (pIC50) in experiment [1] (fluorescent label: DsRed) is 4.99; in experiment [1] (fluorescent label: GFP), over 5.01; in experiment [2] (fluorescent label: DsRed) it was under 3.82; in experiment [2] (fluorescent label: GFP) it was under 3.82.

For `C=C[C@]1(C)C[C@@H](OC(=O)CS[C@@H]2C[C@H]3CC[C@@H](C2)N3C)[C@]2(C)[C@H](C)CC[C@]3(CCC(=O)[C@H]32)[C@@H](C)[C@@H]1O` [Retapamulin], the pIC50 in experiment [1] (fluorescent label: DsRed), in experiment [1] (fluorescent label: GFP), in experiment [2] (fluorescent label: DsRed) and in experiment [2] (fluorescent label: GFP) was over 5.01 in each case.

With `CC(=O)NC[C@H]1CN(c2ccc(N3CCOCC3)c(F)c2)C(=O)O1` [Linezolid (Zyvox)], the pIC50 in experiment [1] (fluorescent label: DsRed) was 6.00; in experiment [1] (fluorescent label: GFP), over 6.30; in experiment [2] (fluorescent label: DsRed), 5.64; in experiment [2] (fluorescent label: GFP), 5.55.

Consider `OC(CNCC(O)C1CCc2cc(F)ccc2O1)C1CCc2cc(F)ccc2O1` (configuration not stated) [Nebivolol], for which the pIC50 in experiment [1] (fluorescent label: DsRed) is 4.46; in experiment [1] (fluorescent label: GFP) it was 4.71; in experiment [2] (fluorescent label: DsRed) it was 3.97; in experiment [2] (fluorescent label: GFP), 3.95.

With `Cc1cc(C(C#N)c2ccc(Cl)cc2)c(Cl)cc1NC(=O)c1cc(I)cc(I)c1O` (configuration not stated) [FLUKIVER], the negative logarithm of the IC50 (pIC50) in experiment [1] (fluorescent label: DsRed), in experiment [1] (fluorescent label: GFP), in experiment [2] (fluorescent label: DsRed) and in experiment [2] (fluorescent label: GFP) was over 5.01 in each case.

For the molecule `C[C@H]1COc2c(N3CCN(C)CC3)c(F)cc3c(=O)c(C(=O)O)cn1c23` [LEVAQUIN], the pIC50 in experiment [1] (fluorescent label: DsRed), in experiment [1] (fluorescent label: GFP), in experiment [2] (fluorescent label: DsRed) and in experiment [2] (fluorescent label: GFP) was over 5.01 throughout.

For the molecule `CC[C@H]1OC(=O)[C@H](C)[C@@H](O[C@H]2C[C@@](C)(OC)[C@@H](O)[C@H](C)O2)[C@H](C)[C@@H](O[C@@H]2O[C@H](C)C[C@H](N(C)C)[C@H]2O)[C@](C)(O)C[C@@H](C)C(=O)[C@H](C)[C@@H](O)[C@]1(C)O` [ERYDERM], the negative-log IC50 (pIC50) in experiment [1] (fluorescent label: DsRed), in experiment [1] (fluorescent label: GFP), in experiment [2] (fluorescent label: DsRed) and in experiment [2] (fluorescent label: GFP) was over 5.01 in each case.

Regarding `CNCCCC12CCC(c3ccccc31)c1ccccc12` [LUDIOLMIL], the negative logarithm of the IC50 (pIC50) in experiment [1] (fluorescent label: DsRed) was 4.51; in experiment [1] (fluorescent label: GFP) it was 4.31; in experiment [2] (fluorescent label: DsRed), under 3.82; in experiment [2] (fluorescent label: GFP), 3.87.

Regarding `NC[C@@H]1O[C@H](C23CC4CC(CC(C4)C2)C3)Cc2c1ccc(O)c2O`, the pIC50 is 4.46 in experiment [1] (fluorescent label: DsRed), 4.26 in experiment [1] (fluorescent label: GFP), 4.46 in experiment [2] (fluorescent label: DsRed) and 4.25 in experiment [2] (fluorescent label: GFP).

These data come from the supplement of paper PMC7695840.
